Measurements from patent US20230085307A1, “PYRIDAZINONE COMPOUND AND HERBICIDE” (NISSAN CHEMICAL CORPORATION, priority 2019, published 2023).

Columns and labels:
redroot pigweed = assay: Test Example 5: herbicidal effect by foliage application, plastic box (Table 20, symbol N); type: in vivo, redroot pigweed (Amaranthus retroflexus); settings: foliage application, 320 g/ha, evaluated three weeks after application
In short: (§1)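 Plants sown in sterilized diluvial soil and grown 14 days in a greenhouse at 25° C to 30° C, then sprayed on the foliage with the compound's emulsion diluted in water to a predetermined herbicide amount. Injury to weeds and crops scored three weeks after application on a visual rating scale.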

windgrass = assay: Test Example 4: herbicidal effect by soil treatment (Table 19, symbol L); type: in vivo, windgrass (Apera spica-venti); settings: amount of applied herbicide 320 g/ha
In short: (§2)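 Seeds were sown in sterilized diluvial soil and covered with about 1.5 cm of soil. An emulsion formulation diluted with water to a predetermined herbicide amount was sprayed evenly onto the soil surface. Plants grew in a greenhouse at 25° C. to 30° C., and the effect was scored three weeks after application using criteria from an earlier test.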

southern crabgrass = assay: Test Example 4: herbicidal effect by soil treatment (Table 19, symbol F); type: in vivo, southern crabgrass (Digitaria ciliaris); settings: amount of applied herbicide 320 g/ha
In short: as §2

Italian ryegrass [1] = assay: Test Example 4: herbicidal effect by soil treatment (Table 19, symbol K); type: in vivo, Italian ryegrass (Lolium multiflorum); settings: amount of applied herbicide 320 g/ha
In short: as §2

Italian ryegrass [2] = assay: Test Example 5: herbicidal effect by foliage application, plastic box (Table 20, symbol K); type: in vivo, Italian ryegrass (Lolium multiflorum); settings: foliage application, 320 g/ha, evaluated three weeks after application
In short: as §1

lambsquarters [3] = assay: Test Example 5: herbicidal effect by foliage application, plastic box (Table 20, symbol O); type: in vivo, lambsquarters (Chenopodium album); settings: foliage application, 320 g/ha, evaluated three weeks after application
In short: as §1

Japanese bulrush = assay: Test Example 1: herbicidal activity, application before weed generation under submerged conditions (Table 16, symbol B); type: in vivo, Japanese bulrush (Schoenoplectus juncoides); settings: 320 g/ha applied herbicide
In short: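 Submerged Wagner pots (alluvial soil, 4 cm water) sown with weed seeds and planted with 2.5-leaf rice seedlings; emulsifiable concentrate diluted in water applied to water surface on sowing day. Held in greenhouse at 25-30 °C; injury scored 0-5 by herbicidal rate after three weeks.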

wild oat = assay: Test Example 4: herbicidal effect by soil treatment (Table 19, symbol I); type: in vivo, wild oat (Avena fatua); settings: amount of applied herbicide 320 g/ha
In short: as §2

green foxtail = assay: Test Example 5: herbicidal effect by foliage application, plastic box (Table 20, symbol G); type: in vivo, green foxtail (Setaria viridis); settings: foliage application, 320 g/ha, evaluated three weeks after application
In short: as §1

Chinese sprangletop = assay: Test Example 3: herbicidal effect by foliage application, Wagner pot (Table 18, symbol D); type: in vivo, chinese sprangletop (Leptochloa chinensis); settings: amount of applied herbicide 320 g/ha
In short: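 Plants were sown in alluvial soil held under 0.1–0.5 cm standing water and grown 14 days in a greenhouse at 25–30 °C. An emulsifiable formulation, water-diluted to the set dose, was then sprayed onto the foliage, and effects were scored three weeks later using previously defined criteria.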

chickweed = assay: Test Example 5: herbicidal effect by foliage application, plastic box (Table 20, symbol P); type: in vivo, common chickweed (Stellaria media); settings: foliage application, 320 g/ha, evaluated three weeks after application
In short: as §1

lambsquarters [4] = assay: Test Example 4: herbicidal effect by soil treatment (Table 19, symbol O); type: in vivo, lambsquarters (Chenopodium album); settings: amount of applied herbicide 320 g/ha
In short: as §2

oval-leafed pondweed = assay: Test Example 2: herbicidal activity, application during weed generation under submerged conditions (Table 17, symbol C); type: in vivo, oval-leafed pondweed (Monochoria vaginalis); settings: AAH 320 g/ha; application during weed generation, submerged conditions
In short: (§3)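 Mixed weed seedlings in alluvial soil under a 4 cm water layer, greenhouse-grown at 25–30° C. Compound given as a diluted emulsion into the floodwater at the 1–2 leaf stage; response graded after three weeks.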

velvetleaf = assay: Test Example 5: herbicidal effect by foliage application, plastic box (Table 20, symbol M); type: in vivo, velvetleaf (Abutilon theophrasti); settings: foliage application, 320 g/ha, evaluated three weeks after application
In short: as §1

late watergrass = assay: Test Example 2: herbicidal activity, application during weed generation under submerged conditions (Table 17, symbol A); type: in vivo, late watergrass (Echinochloa oryzicola); settings: AAH 320 g/ha; application during weed generation, submerged conditions
In short: as §3

blackgrass = assay: Test Example 4: herbicidal effect by soil treatment (Table 19, symbol J); type: in vivo, blackgrass (Alopecurus myosuroides); settings: amount of applied herbicide 320 g/ha
In short: as §2

| SMILES | herbicidal effect on N: redroot pigweed (criteria 0-5) (redroot pigweed) | L: windgrass, herbicidal effect rating (windgrass) | F: southern crabgrass, herbicidal effect rating (southern crabgrass) | K: Italian ryegrass, herbicidal effect rating (Italian ryegrass [1]) | herbicidal effect on K: Italian ryegrass (criteria 0-5) (Italian ryegrass [2]) | herbicidal effect on O: lambsquarters (criteria 0-5) (lambsquarters [3]) | Herbicidal effect on B: Japanese bulrush (grade 0-5) (Japanese bulrush) | I: wild oat, herbicidal effect rating (wild oat) | herbicidal effect on G: green foxtail (criteria 0-5) (green foxtail) | herbicidal effect on D: Chinese sprangletop (Chinese sprangletop) | herbicidal effect on P: chickweed (criteria 0-5) (chickweed) | O: lambsquarters, herbicidal effect rating (lambsquarters [4]) | herbicidal effect rating, C: oval-leafed pondweed (oval-leafed pondweed) | herbicidal effect on M: velvetleaf (criteria 0-5) (velvetleaf) | herbicidal effect rating, A: late watergrass (late watergrass) | J: blackgrass, herbicidal effect rating (blackgrass) |
| --- | --- | --- | --- | --- | --- | --- | --- | --- | --- | --- | --- | --- | --- | --- | --- | --- |
| Cc1nn(C)c(=O)c(-c2c(-c3ccccc3F)sc3ccc(F)cc23)c1O [2-199] | 5 (Herbicidal rate of 90% or more (almost completely withered)) | 0 (Herbicidal rate of 5% or less (almost no effect)) | 2 (Herbicidal rate of 20% or more and less than 40%) | 3 (Herbicidal rate of 40% or more and less than 70%) | 4 (Herbicidal rate of 70% or more and less than 90%) | 5 (Herbicidal rate of 90% or more (almost completely withered)) | 3 (Herbicidal rate of 40% or more and less than 70%) | 0 (Herbicidal rate of 5% or less (almost no effect)) | 5 (Herbicidal rate of 90% or more (almost completely withered)) | 5 (Herbicidal rate of 90% or more (almost completely withered)) | 5 (Herbicidal rate of 90% or more (almost completely withered)) | 4 (Herbicidal rate of 70% or more and less than 90%) | 0 (Herbicidal rate of 5% or less (almost no effect)) | 5 (Herbicidal rate of 90% or more (almost completely withered)) | 0 (Herbicidal rate of 5% or less (almost no effect)) | 0 (Herbicidal rate of 5% or less (almost no effect)) |
| Cc1nn(C)c(=O)c(-c2c(-c3ccc(Br)cc3)sc3ccc(F)cc23)c1O [2-205] | 5 (Herbicidal rate of 90% or more (almost completely withered)) | 0 (Herbicidal rate of 5% or less (almost no effect)) | 5 (Herbicidal rate of 90% or more (almost completely withered)) | 5 (Herbicidal rate of 90% or more (almost completely withered)) | 5 (Herbicidal rate of 90% or more (almost completely withered)) | 5 (Herbicidal rate of 90% or more (almost completely withered)) | 3 (Herbicidal rate of 40% or more and less than 70%) | 1 (Herbicidal rate of 5% or more and less than 20%) | 5 (Herbicidal rate of 90% or more (almost completely withered)) | 4 (Herbicidal rate of 70% or more and less than 90%) | 5 (Herbicidal rate of 90% or more (almost completely withered)) | 5 (Herbicidal rate of 90% or more (almost completely withered)) | 2 (Herbicidal rate of 20% or more and less than 40%) | 5 (Herbicidal rate of 90% or more (almost completely withered)) | 2 (Herbicidal rate of 20% or more and less than 40%) | 0 (Herbicidal rate of 5% or less (almost no effect)) |
| CCCC(=O)Oc1c(C)nn(C)c(=O)c1-c1c(-c2ccc(Br)cc2)sc2ccc(F)cc12 [2-206] | 5 (Herbicidal rate of 90% or more (almost completely withered)) | 2 (Herbicidal rate of 20% or more and less than 40%) | 1 (Herbicidal rate of 5% or more and less than 20%) | 5 (Herbicidal rate of 90% or more (almost completely withered)) | 5 (Herbicidal rate of 90% or more (almost completely withered)) | 5 (Herbicidal rate of 90% or more (almost completely withered)) | 5 (Herbicidal rate of 90% or more (almost completely withered)) | 0 (Herbicidal rate of 5% or less (almost no effect)) | 3 (Herbicidal rate of 40% or more and less than 70%) | 4 (Herbicidal rate of 70% or more and less than 90%) | 5 (Herbicidal rate of 90% or more (almost completely withered)) | 4 (Herbicidal rate of 70% or more and less than 90%) | 4 (Herbicidal rate of 70% or more and less than 90%) | 5 (Herbicidal rate of 90% or more (almost completely withered)) | 4 (Herbicidal rate of 70% or more and less than 90%) | 0 (Herbicidal rate of 5% or less (almost no effect)) |
| CCc1ccc(-c2sc3ccc(F)cc3c2-c2c(O)c(C)nn(C)c2=O)cc1 [2-207] | 5 (Herbicidal rate of 90% or more (almost completely withered)) | 3 (Herbicidal rate of 40% or more and less than 70%) | 3 (Herbicidal rate of 40% or more and less than 70%) | 4 (Herbicidal rate of 70% or more and less than 90%) | 4 (Herbicidal rate of 70% or more and less than 90%) | 5 (Herbicidal rate of 90% or more (almost completely withered)) | 4 (Herbicidal rate of 70% or more and less than 90%) | 0 (Herbicidal rate of 5% or less (almost no effect)) | 4 (Herbicidal rate of 70% or more and less than 90%) | 5 (Herbicidal rate of 90% or more (almost completely withered)) | 5 (Herbicidal rate of 90% or more (almost completely withered)) | 5 (Herbicidal rate of 90% or more (almost completely withered)) | 1 (Herbicidal rate of 5% or more and less than 20%) | 5 (Herbicidal rate of 90% or more (almost completely withered)) | 3 (Herbicidal rate of 40% or more and less than 70%) | 0 (Herbicidal rate of 5% or less (almost no effect)) |
